In paper PMC12155096 (International Journal of Molecular Sciences, 2025):
Where two headings read alike, the source gives them in different places.

Columns and labels:
[1] = biological target: Photinus pyralis (firefly) luciferase (Photinus pyralis, UniProt P08659); assay: biochemical; type: biochemical
[2] = biological target: T1, human CYP1A2 (Homo sapiens, UniProt P05177); conditions: human
T1 sequence (P05177 1-516): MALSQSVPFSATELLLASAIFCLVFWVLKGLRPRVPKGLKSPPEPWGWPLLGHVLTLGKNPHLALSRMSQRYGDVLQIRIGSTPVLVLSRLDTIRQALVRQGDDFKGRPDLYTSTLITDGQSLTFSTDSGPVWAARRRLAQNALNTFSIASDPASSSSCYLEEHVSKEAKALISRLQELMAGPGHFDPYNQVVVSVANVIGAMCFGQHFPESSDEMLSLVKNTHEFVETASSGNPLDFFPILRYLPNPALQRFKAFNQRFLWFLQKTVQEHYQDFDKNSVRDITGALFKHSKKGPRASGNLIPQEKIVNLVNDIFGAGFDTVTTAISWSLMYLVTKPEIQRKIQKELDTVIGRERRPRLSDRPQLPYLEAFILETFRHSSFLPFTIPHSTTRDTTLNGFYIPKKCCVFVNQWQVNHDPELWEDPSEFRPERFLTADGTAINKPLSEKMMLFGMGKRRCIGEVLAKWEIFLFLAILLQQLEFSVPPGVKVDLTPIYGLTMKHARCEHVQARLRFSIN

[3] = biological target: T2, human CYP2C9 (Homo sapiens, UniProt P11712); conditions: human
T2 sequence (P11712 whole entry): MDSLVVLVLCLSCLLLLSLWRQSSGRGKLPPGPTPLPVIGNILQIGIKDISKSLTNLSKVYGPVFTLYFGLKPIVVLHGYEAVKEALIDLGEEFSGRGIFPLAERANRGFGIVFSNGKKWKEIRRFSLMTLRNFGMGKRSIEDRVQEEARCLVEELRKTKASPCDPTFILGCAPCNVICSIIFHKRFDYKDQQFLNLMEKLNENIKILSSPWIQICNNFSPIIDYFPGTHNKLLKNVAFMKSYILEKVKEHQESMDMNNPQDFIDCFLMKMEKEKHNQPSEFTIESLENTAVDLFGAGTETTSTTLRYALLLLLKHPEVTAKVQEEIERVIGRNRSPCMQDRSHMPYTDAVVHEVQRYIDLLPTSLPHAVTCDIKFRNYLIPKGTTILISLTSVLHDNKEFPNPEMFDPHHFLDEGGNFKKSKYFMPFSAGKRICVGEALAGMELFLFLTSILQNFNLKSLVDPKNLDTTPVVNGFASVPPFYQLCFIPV

[4] = biological target: T3, human CYP2C19 (Homo sapiens, UniProt P33261); conditions: human
T3 sequence (P33261 whole entry): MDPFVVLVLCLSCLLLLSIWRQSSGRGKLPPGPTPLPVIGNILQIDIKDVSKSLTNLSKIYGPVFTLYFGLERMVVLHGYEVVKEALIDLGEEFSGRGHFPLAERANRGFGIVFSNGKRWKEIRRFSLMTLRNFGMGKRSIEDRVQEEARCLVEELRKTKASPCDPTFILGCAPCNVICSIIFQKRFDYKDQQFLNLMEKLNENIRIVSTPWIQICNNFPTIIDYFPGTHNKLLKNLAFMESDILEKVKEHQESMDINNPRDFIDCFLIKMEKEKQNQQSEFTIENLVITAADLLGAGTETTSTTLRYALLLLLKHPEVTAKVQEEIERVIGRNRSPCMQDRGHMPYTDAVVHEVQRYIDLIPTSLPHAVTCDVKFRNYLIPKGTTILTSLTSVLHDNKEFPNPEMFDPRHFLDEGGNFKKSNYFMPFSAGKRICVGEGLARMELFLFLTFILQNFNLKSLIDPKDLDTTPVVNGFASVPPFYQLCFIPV

[5] = biological target: T4, human CYP2D6 (Homo sapiens, UniProt P10635); conditions: human
T4 sequence (P10635 whole entry): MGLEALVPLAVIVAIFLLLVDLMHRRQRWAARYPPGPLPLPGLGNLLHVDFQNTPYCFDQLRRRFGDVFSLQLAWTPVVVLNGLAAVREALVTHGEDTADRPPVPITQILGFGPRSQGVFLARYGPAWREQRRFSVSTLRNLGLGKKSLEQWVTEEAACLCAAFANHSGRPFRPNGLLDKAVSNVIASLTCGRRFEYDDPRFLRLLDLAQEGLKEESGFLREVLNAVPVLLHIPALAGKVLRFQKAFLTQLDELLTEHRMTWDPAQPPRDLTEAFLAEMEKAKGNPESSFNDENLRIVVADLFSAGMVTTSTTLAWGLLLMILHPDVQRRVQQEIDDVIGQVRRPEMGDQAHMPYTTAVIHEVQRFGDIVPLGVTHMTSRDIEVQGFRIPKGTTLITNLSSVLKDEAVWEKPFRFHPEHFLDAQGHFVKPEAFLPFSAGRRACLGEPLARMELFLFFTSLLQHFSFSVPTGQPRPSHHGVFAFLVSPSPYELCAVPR

[6] = biological target: T5, CYP3A4 (Homo sapiens, UniProt P08684)
T5 sequence (P08684 whole entry): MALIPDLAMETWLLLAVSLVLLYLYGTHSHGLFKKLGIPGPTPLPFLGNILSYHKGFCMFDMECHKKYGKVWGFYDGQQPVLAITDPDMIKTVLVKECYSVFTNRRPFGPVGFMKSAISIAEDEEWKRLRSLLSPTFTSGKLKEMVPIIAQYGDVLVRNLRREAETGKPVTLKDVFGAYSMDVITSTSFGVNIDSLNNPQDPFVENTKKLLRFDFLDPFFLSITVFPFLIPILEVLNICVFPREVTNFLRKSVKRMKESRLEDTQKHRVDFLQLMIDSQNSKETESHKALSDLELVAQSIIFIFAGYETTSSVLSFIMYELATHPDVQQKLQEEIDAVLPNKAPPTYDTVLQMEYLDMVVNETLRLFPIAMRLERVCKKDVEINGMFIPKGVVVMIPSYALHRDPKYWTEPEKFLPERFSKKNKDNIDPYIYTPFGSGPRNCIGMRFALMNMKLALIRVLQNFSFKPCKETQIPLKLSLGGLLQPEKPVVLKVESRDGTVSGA

[7] = biological target: T1, human CYP1A2; assay: biochemical; conditions: CYP1A2 IC50 (half-maximal inhibitory concentration)
[8] = biological target: T2, human CYP2C9; assay: biochemical
[9] = biological target: T3, human CYP2C19; assay: biochemical; conditions: CYP2C19 IC50 (half-maximal inhibitory concentration)
[10] = biological target: T4, human CYP2D6; assay: biochemical
[11] = biological target: T5, CYP3A4; assay: biochemical; conditions: CYP3A4 IC50 (half-maximal inhibitory concentration)
[12] = CYP2C9 IC50 (half-maximal inhibitory concentration)
[13] = CYP2D6 IC50 (half-maximal inhibitory concentration)

Chain of Photinus pyralis (firefly) luciferase (P08659 whole entry): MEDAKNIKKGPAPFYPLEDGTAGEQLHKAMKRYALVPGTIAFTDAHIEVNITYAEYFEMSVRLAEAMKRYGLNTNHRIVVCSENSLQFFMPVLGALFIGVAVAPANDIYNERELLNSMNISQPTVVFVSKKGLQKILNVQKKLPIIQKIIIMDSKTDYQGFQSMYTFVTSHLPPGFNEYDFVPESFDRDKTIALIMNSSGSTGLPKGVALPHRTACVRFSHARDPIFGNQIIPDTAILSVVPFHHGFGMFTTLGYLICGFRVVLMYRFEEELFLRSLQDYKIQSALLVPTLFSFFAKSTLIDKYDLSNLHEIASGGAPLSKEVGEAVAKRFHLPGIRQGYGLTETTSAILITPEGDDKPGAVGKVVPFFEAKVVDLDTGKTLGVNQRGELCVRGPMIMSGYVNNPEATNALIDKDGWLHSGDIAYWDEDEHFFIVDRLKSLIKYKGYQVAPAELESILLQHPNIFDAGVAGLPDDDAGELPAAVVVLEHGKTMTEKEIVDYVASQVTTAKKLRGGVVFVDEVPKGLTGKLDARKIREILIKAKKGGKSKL

SMILES | Luciferase IC50 (half-maximal inhibitory concentration) [1] | CYP1A2 Efficacy (in parenthesis) [2] | CYP2C9 Efficacy (in parenthesis) [3] | CYP2C19 Efficacy (in parenthesis) [4] | CYP2D6 Efficacy (in parenthesis) [5] | CYP3A4 Efficacy (in parenthesis) [6] | IC50 [7] [µM] | IC50 [8, 12] [µM] | IC50 [9] [µM] | IC50 [10, 13] [µM] | IC50 [11] [µM] | IC50 [8] [µM] | IC50 [10] [µM]
CC(C)C1CCC(Cc2ccc(Cl)cc2)C1(O)Cn1cncn1 (stereo not drawn) [Ipconazole] | Inactive | 35.41 ± 4.07 (-90 ± 1) % | 0.79 ± 0.09 (-94 ± 4) % | 0.27 ± 0.07 (-168 ± 31) % | 22.34 ± 2.57 (-107 ± 15) % | 0.05 ± 0.01 (-89 ± 5) % | 35.4 | 0.79 | 0.27 | 22.3 | 0.05 |  | 
COP(=S)(Oc1cc(Cl)c(Br)cc1Cl)c1ccccc1 (stereo not drawn) [Leptophos] | Inactive | 21.38 ± 6.3 (-109 ± 13) % | 0.98 ± 0.25 (-107 ± 5) % | 0.27 ± 0.05 (-122 ± 2) % | 89.36 ± 0 (-42 ± 11) % | 7.39 ± 0.5 (-65 ± 15) % | 21.4 |  | 0.27 |  | 7.39 | 0.98 | 89.4
CCCCC(C#N)(Cn1cncn1)c1ccc(Cl)cc1 (stereo not drawn) [Myclobutanil] | Inactive | 33.28 ± 11.5 (-34 ± 3) % | 25.18 ± 0 (-109 ± 4) % | 0.66 ± 0.12 (-168 ± 41) % | 49.32 ± 12.32 (-38 ± 7) % | 0.17 ± 0.05 (-75 ± 2) % | 33.3 | 25.2 | 0.66 | 49.3 | 0.17 |  | 
OC(c1ccc(F)cc1)(c1cncnc1)c1ccccc1Cl (stereo not drawn) [Nuarimol] | Inactive | 49.42 ± 19.58 (-46 ± 6) % | 23.57 ± 4.24 (-118 ± 8) % | 2.7 ± 1.21 (-141 ± 5) % | 35.73 ± 4.11 (-53 ± 5) % | 0.31 ± 0.08 (-68 ± 6) % | 49.4 | 23.6 | 2.7 | 35.7 | 0.31 |  | 
CCOP(=S)(OCC)Oc1ccc([N+](=O)[O-])cc1 [Parathion] | Inactive | 0.99 ± 0.17 (-96 ± 2) % | 1.62 ± 0.19 (-99 ± 2) % | 0.17 ± 0.04 (-144 ± 4) % | 32.26 ± 3.71 (-69 ± 3) % | 3.18 ± 0.89 (-79 ± 1) % | 0.99 |  | 0.17 |  | 3.18 | 1.62 | 32.3
C=CC(=O)OCC(CO)(COC(=O)C=C)COC(=O)C=C [Pentaerythritol triacrylate] | Inactive | 71.58 ± 8.23 (-54 ± 11) % | 13.25 ± 1.87 (-108 ± 2) % | 22.64 ± 2.6 (-137 ± 14) % | 63.77 ± 20.97 (-79 ± 21) % | 0.93 ± 0.39 (-89 ± 6) % | 71.6 | 13.2 | 22.6 | 63.8 | 0.93 |  | 
